Measured values published in patent publication US10280217B2, “Cell culture additives and their use for increased bioprotein production from cells” (priority 2017, dated 2019).
Where two headings read alike, the source gives them in different places.

Columns and labels:
[1] = cited from earlier work
CHO-HBS cells [2] = assay: Batch CHO cell process in 3 L bioreactors with gaseous or dissolved candidate Additives (VCD, antibody titer, qP); type: cell-based, Chinese hamster; settings: vs control; for impact on protein biomolecule production or cell growth: gas sparged into 3 L batch cultures; for antibody titer / viable cell density (VCD) / cell growth / calculated specific cellular productivity (qP): 3 L batch cultures
Experimental: The following candidate gaseous and chemical additives were screened using a batch CHO cell process in a 3 L (2 L working volume) bioreactors. CHO-HBS cells were cultured in CDM4MAb media (HyClone Labaratories; Logan Utah; custom part containing base media cat# SH30801.02 supplemented with an additional 0.5 g/L poloxamer 188) in vented, plain-bottom Erlenmeyer flasks at 3-30×10^5 cells/mL. The cells were cultured for 14-16 days and then inoculated into 3 L semi-batch bioreactors at 3-4×10^5 cells/mL with 2 L working volumes. The bioreactor system monitored and controlled temperature, pH, % CO2, %02, sparge rate, and aeration rate. The bioreactors maintained a sparge rate of 0.1 vvm, 40% DO, and a pH value of 7.10. The pH was controlled by addition of CO2 or 1 N sodium bicarbonate solution. Additionally, 1 M glucose was added and adjusted daily to allow for a glucose consumption rate of 3 g/L/day. Each bioreactor was sampled daily (3-4 mL removed/day) for analysis. Gaseous additives were injected into the bioreactors using the following methods: • Inert Gas Injection (xenon): The bioreactor system controlled the flowrate and composition of oxygen, carbon dioxide, air, and nitrogen that was sparged into each bioreactor. The mixture composition was determined by the dissolved oxygen and pH levels in each reactor. House gas lines for these four gases were filtered and fed into the bioreactor mass flow control system. The effects of xenon were tested by replacing the nitrogen house gas feed with a cylinder containing xenon and replacing the air gas feed with a cylinder containing 21% oxygen and 79% xenon respectively. The system was calibrated for controlling the flowrate of the replacement gas by measuring the bioreactor mass flow controller flowrate for each gas at 12slph using a film flowmeter, then adjusting the gas correction factor for the bioreactor nitrogen or air mass flow controller until the flowrate on the film flowmeter and bioreactor system were the same. […] This allowed the CHO cells to be cultured with the maximum quantity of inert gas. • Reactive Gas Injection (nitric oxide, carbon monoxide, or hydrogen): The bioreactor module controlled the composition and flow of oxygen, air, nitrogen, and carbon dioxide gases as described previously. Reactive gases including nitric oxide, carbon monoxide, or hydrogen were introduced into the gas stream through a tee line connection before the gas mixture entered the bioreactors. The reactive gas flowrate was controlled using a mass flow controller and the flowrate of the bioreactor controlled mixture was adjusted to maintain the total gas flowrate into each reactor at 12slph.

HO-1 = HO-1 expression in shake flask cultures; type: cell-based, Chinese hamster; settings: shake flasks, vs control
Experimental: (§1) Cells were grown in CDM4MAb medium supplemented with poloxamer-188. Flasks were incubated on a shaker at 125 rpm in a humidified incubator at 37° C. and 5% CO2. DETA-NO was dissolved in 0.01 M sodium hydroxide solution at a 0.2 M concentration. Aliquots of DETA-NO solution were added daily to cell cultures to reach a final concentration of 0.09, 0.18 or 0.36 mM DETA-NO. Sodium hydroxide solution (0.01M) was added daily as a negative control. 0.01-1.0 mM DETA-NO release NO at a rate in the low nM/sec range (Bouton, C. and Demple, B., 2000. Nitric oxide-inducible expression of heme oxygenase-1 in human cells translation-independent stabilization of the mRNA and evidence for direct action of nitric oxide. Journal of Biological Chemistry, 275(42), pp. 32688-32693).
(§2) The effects of gaseous NO were partially recapitulated by adding NO-releasing compound DETA-NO daily to cell cultures in shake flasks. Cell growth and viability followed similar trends with addition of DETA-NO as with gaseous NO.

Heme Oxygenase 1 (HO-1) = assay: HO-1 expression in 3 L cultures (RNA-seq, Western blot); type: cell-based, Chinese hamster; settings: 3 L cultures exposed to the gas, vs control
Experimental: (§3) Gene expression profiles were captured using RNA-seq. Conesa A, Madrigal P, Tarazona S, et al. A survey of best practices for RNA-seq data analysis. Genome Biology. 2016; 17:13. doi:10.1186/s13059-016-0881-8. RNA was extracted with a RNeasy Plus Mini kit (Qiagen) and quantified by absorbance at 260 nm with a NanoDrop 2000 (Thermo Fisher Scientific). The RNA quality was assessed using a RNA 6000 Nano Kit (Agilent) and a Bioanalyzer (Agilent). RNA was fragmented and libraries were prepared using commercial kits (TruSeq RNA Library Prep Kit v2, Illumina). RNA was sequenced on a HiSeq 2500 (Illumina) at the DNA Sequencing & Genotyping Center of the University of Delaware. Data were analyzed at the Bioinformatics Core Facility, Center for Bioinformatics and Computational Biology of the University of Delaware. As the specific genome sequence of the CHO DG44 line was not available, a Chinese Hamster genome draft was used as a reference. Genes with differential expression (false discovery rate <0.001) were further analyzed with DAVID 6.8 (https://david.ncifcrf.gov/), STRING 10.0 (http://string-db.org/) and iProXpress (http://pir.georgetown.edu/iproxpress2/).
Exemplary transcript profiles of cells on days 1, 3 and 5 of 3 L cell cultures were generated between control and gaseous NO treated cultures to perform differential gene expression analysis (FIG. 16). […]

[3] = test system: glutathione-related enzymes (S-transferase proteins, catalases, oxidation resistance genes); assay: Expression of glutathione-related enzymes in 3 L cultures (RNA-seq, Western blot); type: cell-based, Chinese hamster; settings: gaseous NO vs control
Experimental: as §3
NO can oxidize intracellular molecules and thereby change the antioxidant levels within the cell, resulting in oxidative stress that potentially leads to membrane dysfunction, DNA damage and inactivation of proteins. […]

Caspase-3 = molecular target: T1, Caspase-3 (Cricetulus griseus, UniProt Q6JH80); assay: Caspase-3 activity (EnzCheck Caspase-3 Assay Kit #1) in 3 L cultures; type: cell-based, Chinese hamster; settings: 3 L cultures ± NO 300 ppm, same number of viable cells
T1 construct: endogenous in cells; host or cells: CHO-HBS cells (CHO DG44 derived), 3 L bioreactor cultures
T1 sequence (Q6JH80 29-175 limits assumed): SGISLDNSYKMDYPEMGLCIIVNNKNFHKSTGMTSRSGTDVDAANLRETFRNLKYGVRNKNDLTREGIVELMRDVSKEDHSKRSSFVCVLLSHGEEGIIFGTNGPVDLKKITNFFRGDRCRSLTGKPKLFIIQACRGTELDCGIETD
T1 sequence (Q6JH80 176-277 limits assumed): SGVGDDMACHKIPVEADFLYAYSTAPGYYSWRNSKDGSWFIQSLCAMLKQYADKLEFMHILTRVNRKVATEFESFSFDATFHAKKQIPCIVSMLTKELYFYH
From the text: The NO-specific extension of viability correlates with a decrease in Caspase-3 activity (FIG. 20). Capase-3 activity was monitored with an EnzCheck Caspase-3 Assay Kit #1 (Thermo Fisher Scientific) using samples containing the same number of viable cells. All caspase proteases contain a single cystein at the enzyme catalytic site that is essential for activity. […] Thus, the observed lower caspase-3 activity may be due to a specific blockage of the catalytic cysteine residue through formation of nitrosylthiols.

[4] = Antibody assembly by SDS-PAGE (non-reducing / reducing); type: physicochemical; settings: NO-sparged vs control
From the text: In the absence of reducing agents, the pool of IgGs consists of three structures: fully assembled IgGs, IgGs missing one light chain, and IgGs missing two light chains. Variations in the proportion of the three structures depend on the production process and intrinsic properties of the IgG molecules. […] In the presence of reducing agents, the three structures collapsed into two forms of approximately 52 and 26 kDa, corresponding to the heavy and light chains, respectively. No major differences were detected between antibodies produced in NO-sparged reactors compared to controls. Byproducts with an apparent molecular mass of 25 kDa were detected on day 10. These species, which might be degradation products of light chains, seemed to be an intrinsic feature of HBS antibodies independent from the NO-based process.

[5] = Glycosylation analysis (released glycans, HILIC); type: physicochemical; settings: CHO-HBS cells treated with 300 ppm NO vs control
From the text: Glycans were enzymatically released from purified IgGs, labeled with a fluorescent dye, and separated by hydrophilic interaction liquid chromatography (GlycoWorks RapiFluor-MS N-Glycan Kit, Waters). Glycans of IgGs purified from CHO-HBS cells were consistent with the typical patterns reported in the literature for proteins expressed in CHO cells. A heterogeneous population of glycans with high proportion of GOF structure followed by G1F and G2F was observed (FIG. 26).

CHO-HBS cells [6] = assay: DETA-NO added daily to shake flask cultures (cell growth, viability); type: cell-based, Chinese hamster; settings: shake flasks
Experimental: as §1, §2

In the case of `CC(C)N(CCCN)/[N+]([O-])=N/O` [NOC-5], the half-life ([1]; PBS (pH 7.4), 22° C.) is given as 93 min.
In the case of `[Kr]` [Krypton], the “impact on protein biomolecule production or cell growth” value (“impact” below) (CHO-HBS cells [2]) is reported as “did not significantly affect”.
In the case of `CCN(CC)/[N+]([O-])=N/O.CCNCC` [DEA-NO], the half-life ([1]; buffer, pH 7.4) is listed as 2 min.
In the case of `O=NO` [Nitrite, Sodium Nitrite], the antibody titer (CHO-HBS cells [2]) is reported as “no significant impact”, the “viable cell density (VCD) / cell growth” value (CHO-HBS cells [2]) is reported as “at most a small effect on VCD in the late phase of culture” and the “HO-1 expression (oxidative stress response)” value (HO-1) is reported as “does not activate”.
In the case of `[C-]#[O+]` [Carbon Monoxide], the antibody titer (CHO-HBS cells [2]) is reported as “less impacted”, the “calculated specific cellular productivity (qP)” value (CHO-HBS cells [2]) is reported as “higher than control” and the “viable cell density (VCD) / cell growth” value (CHO-HBS cells [2]) is reported as “suppressed during the growth phase, but shows higher VCD at the end of the culturing period”. The “overall yield from batch culture” value (CHO-HBS cells [2]; net effect of VCD to qP) was “overall smaller yield” and the “expression of HO-1 (oxidative stress response)” value (Heme Oxygenase 1 (HO-1)) was “did not lead to an increase”.
For `[N]=O` [Nitric Oxide], the “calculated specific cellular productivity (qP)” value (CHO-HBS cells [2]) was “boosted qP”, the “viable cell density (VCD) / cell growth” value (CHO-HBS cells [2]) was “shifted the cell culture VCD profile” and the “expression of HO-1 (oxidative stress response)” value (Heme Oxygenase 1 (HO-1)) was “induces expression”. For the same compound, the “expression of glutathione-related enzymes” value [3] was “stimulates expression”, the Caspase-3 activity (Caspase-3) was “decrease” and the “overall IgG structure” value [4] was “did not seem to impact”. The “fucosylated glycans of IgGs” value [5] was “minor reduction”.
In the case of `[Xe]` [Xenon], the “impact” value (CHO-HBS cells [2]) is reported as “do not have a significant impact”.
For `[O]N=O` [Nitrogen Dioxide], the antibody titer (CHO-HBS cells [2]) was “strongly negative effect” and the “viable cell density (VCD) / cell growth” value (CHO-HBS cells [2]) was “strongly negative effect”.
For `CNCCCCCCN(C)/[N+]([O-])=N/O` [MAHMA NONOate], the half-life ([1]; 37° C., pH 7.4) is listed as 1 min.
For `CCCN(CCCN)/[N+]([O-])=N/O` [PAPA NONOate], the half-life ([1]; 37° C., pH 7.4) is listed as 15 min.
For `NCCN(CCN)/[N+]([O-])=N/O` [DETA-NO, diethylenetriamine-nitric oxide adduct], the viable cell counts (CHO-HBS cells [6]; daily addition, relative to control cultures) was “lower at the stationary phase but increased in the late phase of the culture”, the cell death (CHO-HBS cells [6]; higher concentrations tested) was “increased cell death” and the “HO-1 expression (oxidative stress response)” value (HO-1) was “HO-1 up regulation”. For the same compound, the half-life ([1]; 37° C., pH 7.4) was 1200 min.
With `[Ar]` [Argon] the “impact” value (CHO-HBS cells [2]) was “did not significantly affect”.
In the case of `[O-]/[N+](=N\O[C@@H]1O[C@H](CO)[C@H](O)[C@H](O)[C@H]1O)N1CCCC1` [β-Gal-NO], the half-life ([1]; pH 5.6, following activation by β-galactosidase) is given as “six”.
With `[HH]` [Hydrogen] the “impact” value (CHO-HBS cells [2]) was “do not have a significant impact”.
In the case of `O=[N+]([O-])[O-].[Na+]` [Nitrate, Sodium Nitrate], the antibody titer (CHO-HBS cells [2]) is reported as “no effect” and the “viable cell density (VCD) / cell growth” value (CHO-HBS cells [2]) is reported as “no effect”.
